Test system: Primary human dermal fibroblast (HDF) cells
Experiment: Ferritin induction in HDF cells (ferritin and protein by ELISA)
Type: cell-based
Settings: Example 1; 5 μM in culture media, 18 hours; vs cells with no treatment
Procedure: Primary human dermal fibroblast (HDF) cells were cultured in Dulbecco's modified eagle medium (DMEM) with GlutaMAX™ and 10% Fetal Bovine Serum (FBS) and 1% Streptomycin (antibiotics). Before treatment, cells were seeded in a 12-well plate (1 ml culture media and surface area of the well is approximately 4.0 cm^2 per well) overnight. After washing twice with cold phosphate buffered saline (PBS), HDF cells were starved in 0.1% FBS for overnight. Subsequently, cells were treated with ferrous sulfate septahydrate (FeSO4·7H2O) at a final concentration of 5 μM for additional 18 hours. Cells with no treatment were used as a control. Cells were then washed with PBS and lysed. Levels of ferritin and protein were measured by using commercially available enzyme-linked immunosorbent assays (ELISA) kits and quantitated with standard curves constructed with human liver ferritin and human serum albumin as standards. The results were expressed as μg ferritin per mg protein and are show in FIG. 2.
The two iron oxides were premixed homogeneously in a 50% (v/v) of water and tertraethylene glycol and incubated at 3 mg/ml overnight at room temperature in a sodium acetate buffer (10 mM, pH 5.0), mimicking the pHs of acid rain or sweat. […] After the foregoing treatment, cells were collected and levels of ferritin and proteins in cells were measured and calculated as described in Example 1. […]

SMILES: O.O.O.O.O.O.O.O=S(=O)([O-])[O-].[Fe+2] [ferrous sulfate, ferrous sulfate septahydrate (FeSO4·7H2O)]
- increase in level of ferritin compared to the control: 570%

From patent US20220409521A1, “COMPOSITION FOR COSMETICS” (FE:I BEAUTY TECH, INC., priority 2021, published 2022)
